Holding throughout (type): biochemical
In test [1] the target is T1, human Yes1 enzyme (Homo sapiens, UniProt P07947).
T1 construct: made in house
Briefly: Yes1 enzyme inhibitory activity (time-resolved fluorometry, biotinylated peptide phosphorylation). Conditions: biotinylated peptide phosphorylation, read-out: YES_IC50. An outline of the steps: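 Inhibition was expressed against a compound-free control to give IC50, using TR-FRET read-out (Eu-cryptate anti-pTyr antibody, streptavidin-XL665).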

Test [2] concerns the target T2, human Src enzyme (Homo sapiens, UniProt P12931).
T2 construct: purchased Carna Biosciences, Inc. 08-173
Description: Src enzyme inhibitory activity (time-resolved fluorometry, biotinylated peptide phosphorylation). The following applies: biotinylated peptide phosphorylation, read-out: SRC_IC50. An outline of the steps:
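Compounds were tested for blocking tyrosine phosphorylation of a biotinylated peptide substrate by recombinant human Src. Phosphorylated product was quantified by time-resolved fluorometry using europium cryptate and XL665 conjugates, and IC50 was calculated against the compound-free control.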

Test [3] has as its target T3, human Lck enzyme (Homo sapiens, UniProt P06239).
T3 construct: purchased Carna Biosciences, Inc. 08-170
Description: Lck enzyme inhibitory activity (time-resolved fluorometry, biotinylated peptide phosphorylation). The following applies: biotinylated peptide phosphorylation, read-out: LCK_IC50. The gist of the method:
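Readout pairs a europium cryptate-labelled anti-phosphotyrosine antibody with XL665-streptavidin, measured by time-resolved fluorescence. IC50 derived from percent inhibition against untreated controls.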

The text below walks through data of patent publication US10479780B2, “Aminopyrazole derivatives” (Chugai Seiyaku Kabushiki Kaisha, priority 2015, dated 2019).

pIC50: −log10 of the molar value.

T2 sequence (P12931 whole entry): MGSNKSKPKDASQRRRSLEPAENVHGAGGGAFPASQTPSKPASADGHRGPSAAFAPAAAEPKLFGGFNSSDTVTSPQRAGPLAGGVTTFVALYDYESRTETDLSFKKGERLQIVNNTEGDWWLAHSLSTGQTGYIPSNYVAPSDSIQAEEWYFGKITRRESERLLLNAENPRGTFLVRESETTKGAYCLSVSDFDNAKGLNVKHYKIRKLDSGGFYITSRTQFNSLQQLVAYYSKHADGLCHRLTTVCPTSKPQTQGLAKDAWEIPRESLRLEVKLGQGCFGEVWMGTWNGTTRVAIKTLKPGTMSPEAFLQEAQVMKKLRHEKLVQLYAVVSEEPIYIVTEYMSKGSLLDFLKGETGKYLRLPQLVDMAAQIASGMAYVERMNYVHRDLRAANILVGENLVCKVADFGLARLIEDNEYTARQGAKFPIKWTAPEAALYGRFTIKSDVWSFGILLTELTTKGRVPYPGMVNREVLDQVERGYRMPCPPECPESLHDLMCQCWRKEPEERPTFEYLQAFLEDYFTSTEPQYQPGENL
T1 sequence (P07947 whole entry): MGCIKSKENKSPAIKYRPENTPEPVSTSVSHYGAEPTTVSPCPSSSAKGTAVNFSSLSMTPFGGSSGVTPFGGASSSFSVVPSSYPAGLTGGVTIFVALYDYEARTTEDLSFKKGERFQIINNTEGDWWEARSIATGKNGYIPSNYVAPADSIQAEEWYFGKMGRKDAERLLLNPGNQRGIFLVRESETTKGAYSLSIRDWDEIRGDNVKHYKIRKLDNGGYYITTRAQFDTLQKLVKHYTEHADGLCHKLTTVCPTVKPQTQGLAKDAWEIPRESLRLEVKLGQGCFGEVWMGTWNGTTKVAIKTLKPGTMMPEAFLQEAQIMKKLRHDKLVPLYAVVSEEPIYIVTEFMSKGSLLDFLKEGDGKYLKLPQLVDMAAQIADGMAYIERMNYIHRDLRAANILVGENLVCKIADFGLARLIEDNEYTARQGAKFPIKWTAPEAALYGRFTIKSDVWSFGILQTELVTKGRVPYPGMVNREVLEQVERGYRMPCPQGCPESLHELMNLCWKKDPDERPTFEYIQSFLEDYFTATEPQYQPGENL
T3 sequence (P06239 whole entry): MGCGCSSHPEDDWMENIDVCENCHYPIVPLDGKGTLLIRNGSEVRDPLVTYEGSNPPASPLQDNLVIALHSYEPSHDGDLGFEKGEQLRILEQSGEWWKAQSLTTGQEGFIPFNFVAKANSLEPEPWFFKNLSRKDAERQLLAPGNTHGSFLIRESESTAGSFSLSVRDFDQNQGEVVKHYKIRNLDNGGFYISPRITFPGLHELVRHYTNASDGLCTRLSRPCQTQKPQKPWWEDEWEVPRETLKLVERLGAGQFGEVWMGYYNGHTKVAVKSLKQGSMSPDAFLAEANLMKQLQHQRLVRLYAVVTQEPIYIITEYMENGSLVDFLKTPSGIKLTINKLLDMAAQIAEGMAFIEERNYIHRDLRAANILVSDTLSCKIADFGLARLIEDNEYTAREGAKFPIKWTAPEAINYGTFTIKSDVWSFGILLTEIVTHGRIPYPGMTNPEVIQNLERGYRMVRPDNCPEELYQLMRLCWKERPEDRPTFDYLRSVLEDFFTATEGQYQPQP

As for `Cc1cc2cc(C(=O)c3cnn(-c4cnc(Oc5c(F)cccc5Cl)cc4C)c3N)[nH]c2cc1NS(C)(=O)=O` [Example 4-2-064, N-[2-[5-amino-1-[6-(2-chloro-6-fluorophenoxy)-4-methylpyridin-3-yl]pyrazole-4-carbonyl]-5-methyl-1H-indol-6-yl]methanesulfonamide], the figures for the pIC50 in test [1], in test [2] and in test [3] were 8.62, 7.20 and 7.85, respectively.
Turning to `Cc1cc2cc(C(=O)c3cnn(-c4cnc(Oc5ccccc5C)cc4C)c3N)[nH]c2cc1NS(C)(=O)=O` [Example 4-2-065, N-[2-[5-amino-1-[4-methyl-6-(2-methylphenoxy)pyridin-3-yl]pyrazole-4-carbonyl]-5-methyl-1H-indol-6-yl]methanesulfonamide], the pIC50 in test [1] was 8.66; in test [2], 7.36; in test [3], 7.74.
As for `Cc1cc2cc(C(=O)c3cnn(-c4cnc(Oc5cccc(Cl)c5)cc4C)c3N)[nH]c2cc1NS(C)(=O)=O` [Example 4-2-066, N-[2-[5-amino-1-[6-(3-chlorophenoxy)-4-methylpyridin-3-yl]pyrazole-4-carbonyl]-5-methyl-1H-indol-6-yl]methanesulfonamide], the pIC50 is 8.03 in test [1], 6.80 in test [2] and 7.44 in test [3].
For `Cc1cc2cc(C(=O)c3cnn(-c4cnc(Oc5ccc(F)cc5)cc4C)c3N)[nH]c2cc1NS(C)(=O)=O` [Example 4-2-067, N-[2-[5-amino-1-[6-(4-fluorophenoxy)-4-methylpyridin-3-yl]pyrazole-4-carbonyl]-5-methyl-1H-indol-6-yl]methanesulfonamide], the pIC50 is 8.20 in test [1], 7.01 in test [2] and 7.23 in test [3].
On to `Cc1cc2cc(C(=O)c3cnn(-c4ccc(Oc5ccccc5F)cc4C)c3N)[nH]c2cc1NS(=O)(=O)CCCF` [Example 4-2-068, N-[2-[5-amino-1-[4-(2-fluorophenoxy)-2-methylphenyl]pyrazole-4-carbonyl]-5-methyl-1H-indol-6-yl]-3-fluoropropane-1-sulfonamide], for which the pIC50 in test [1] is 8.74; in test [2], 7.55; in test [3], 7.68.
On to `Cc1cc2cc(C(=O)c3cnn(-c4ccc(Oc5cccc(F)c5F)cc4C)c3N)[nH]c2cc1NS(=O)(=O)CCCF` [Example 4-2-069, N-[2-[5-amino-1-[4-(2,3-difluorophenoxy)-2-methylphenyl]pyrazole-4-carbonyl]-5-methyl-1H-indol-6-yl]-3-fluoropropane-1-sulfonamide], for which the pIC50 in test [1] is 9.00; in test [2], 7.17; in test [3], 7.66.
For `Cc1cc2cc(C(=O)c3cnn(-c4c(C)cc(Oc5ccccc5F)cc4F)c3N)[nH]c2cc1NS(=O)(=O)CCCF` [Example 4-2-070, N-[2-[5-amino-1-[2-fluoro-4-(2-fluorophenoxy)-6-methylphenyl]pyrazole-4-carbonyl]-5-methyl-1H-indol-6-yl]-3-fluoropropane-1-sulfonamide], the pIC50 in test [1] is 8.12; in test [2], 6.85; in test [3], 7.33.
The matching figures for `Cc1cc2cc(C(=O)c3cnn(-c4c(C)cc(Oc5cccc(F)c5F)cc4F)c3N)[nH]c2cc1NS(=O)(=O)CCCF` [Example 4-2-071, N-[2-[5-amino-1-[4-(2,3-difluorophenoxy)-2-fluoro-6-methylphenyl]pyrazole-4-carbonyl]-5-methyl-1H-indol-6-yl]-3-fluoropropane-1-sulfonamide]: 7.92, 6.80 and 7.11.
Regarding `Cc1cc2cc(C(=O)c3cnn(-c4cnc(Oc5ccccc5F)cc4C)c3N)[nH]c2cc1NS(=O)(=O)CCCF` [Example 4-2-072, N-[2-[5-amino-1-[6-(2-fluorophenoxy)-4-methylpyridin-3-yl]pyrazole-4-carbonyl]-5-methyl-1H-indol-6-yl]-3-fluoropropane-1-sulfonamide], the results for the pIC50 in test [1], in test [2] and in test [3] were 8.74, 7.06 and 7.70, respectively.
Regarding `Cc1cc2cc(C(=O)c3cnn(-c4cnc(Oc5c(F)cccc5F)cc4C)c3N)[nH]c2cc1NS(=O)(=O)CCCF` [Example 4-2-073, N-[2-[5-amino-1-[6-(2,6-difluorophenoxy)-4-methylpyridin-3-yl]pyrazole-4-carbonyl]-5-methyl-1H-indol-6-yl]-3-fluoropropane-1-sulfonamide], the results for the pIC50 in test [1], in test [2] and in test [3] were 8.51, 7.43 and 7.72, respectively.
For the compound `Cc1cc2cc(C(=O)c3cnn(-c4cnc(Oc5ccccc5Cl)cc4C)c3N)[nH]c2cc1NS(=O)(=O)CCCF` [Example 4-2-074, N-[2-[5-amino-1-[6-(2-chlorophenoxy)-4-methylpyridin-3-yl]pyrazole-4-carbonyl]-5-methyl-1H-indol-6-yl]-3-fluoropropane-1-sulfonamide], the results for the pIC50 in test [1], in test [2] and in test [3] were 8.57, 7.15 and 7.57, respectively.
As to `Cc1cc2cc(C(=O)c3cnn(-c4cnc(Oc5cccc(Cl)c5)cc4C)c3N)[nH]c2cc1NS(=O)(=O)CCCF` [Example 4-2-075, N-[2-[5-amino-1-[6-(3-chlorophenoxy)-4-methylpyridin-3-yl]pyrazole-4-carbonyl]-5-methyl-1H-indol-6-yl]-3-fluoropropane-1-sulfonamide], the results for the pIC50 in test [1], in test [2] and in test [3] were 8.00, 6.77 and 6.96, respectively.
The matching figures for `Cc1cc2cc(C(=O)c3cnn(-c4cnc(Oc5ccc(F)cc5)cc4C)c3N)[nH]c2cc1NS(=O)(=O)CCCF` [Example 4-2-076, N-[2-[5-amino-1-[6-(4-fluorophenoxy)-4-methylpyridin-3-yl]pyrazole-4-carbonyl]-5-methyl-1H-indol-6-yl]-3-fluoropropane-1-sulfonamide]: 7.74, 6.89 and 7.21.
Turning to `Cc1cc(Oc2ccccc2F)ccc1-n1ncc(C(=O)c2cc3cc(Cl)c(NS(C)(=O)=O)cc3[nH]2)c1N` [Example 4-2-077, N-[2-[5-amino-1-[4-(2-fluorophenoxy)-2-methylphenyl]pyrazole-4-carbonyl]-5-chloro-1H-indol-6-yl]methanesulfonamide], the results for the pIC50 in test [1], in test [2] and in test [3] were 9.19, 7.60 and 8.37, respectively.
In the same order, the values of `Cc1cc(Oc2cccc(F)c2F)ccc1-n1ncc(C(=O)c2cc3cc(Cl)c(NS(C)(=O)=O)cc3[nH]2)c1N` [Example 4-2-078, N-[2-[5-amino-1-[4-(2,3-difluorophenoxy)-2-methylphenyl]pyrazole-4-carbonyl]-5-chloro-1H-indol-6-yl]methanesulfonamide] are 8.23, 7.04 and 7.30.
In the same order, the values of `Cc1cc(Oc2ccccc2F)cc(F)c1-n1ncc(C(=O)c2cc3cc(Cl)c(NS(C)(=O)=O)cc3[nH]2)c1N` [Example 4-2-079, N-[2-[5-amino-1-[2-fluoro-4-(2-fluorophenoxy)-6-methylphenyl]pyrazole-4-carbonyl]-5-chloro-1H-indol-6-yl]methanesulfonamide] are 8.59, 7.18 and 7.62.
The matching figures for `Cc1cc(Oc2cccc(F)c2F)cc(F)c1-n1ncc(C(=O)c2cc3cc(Cl)c(NS(C)(=O)=O)cc3[nH]2)c1N` [Example 4-2-080, N-[2-[5-amino-1-[4-(2,3-difluorophenoxy)-2-fluoro-6-methylphenyl]pyrazole-4-carbonyl]-5-chloro-1H-indol-6-yl]methanesulfonamide]: 7.92, 6.77 and 7.17.
Regarding `Cc1cc(Oc2cc(F)ccc2F)cc(F)c1-n1ncc(C(=O)c2cc3cc(Cl)c(NS(C)(=O)=O)cc3[nH]2)c1N` [Example 4-2-081, N-[2-[5-amino-1-[4-(2,5-difluorophenoxy)-2-fluoro-6-methylphenyl]pyrazole-4-carbonyl]-5-chloro-1H-indol-6-yl]methanesulfonamide], the pIC50 was 7.85 in test [1], 6.68 in test [2] and 7.08 in test [3].
The matching figures for `Cc1cc(Oc2ccccc2Cl)cc(F)c1-n1ncc(C(=O)c2cc3cc(Cl)c(NS(C)(=O)=O)cc3[nH]2)c1N` [Example 4-2-082, N-[2-[5-amino-1-[4-(2-chlorophenoxy)-2-fluoro-6-methylphenyl]pyrazole-4-carbonyl]-5-chloro-1H-indol-6-yl]methanesulfonamide]: 7.66, 6.51 and 6.80.
For the compound `Cc1cc(Oc2cccc(Cl)c2)cc(F)c1-n1ncc(C(=O)c2cc3cc(Cl)c(NS(C)(=O)=O)cc3[nH]2)c1N` [Example 4-2-083, N-[2-[5-amino-1-[4-(3-chlorophenoxy)-2-fluoro-6-methylphenyl]pyrazole-4-carbonyl]-5-chloro-1H-indol-6-yl]methanesulfonamide], the results for the pIC50 in test [1], in test [2] and in test [3] were 7.57, 6.28 and 6.60, respectively.
In the same order, the values of `Cc1cc(Oc2ccccc2)cc(F)c1-n1ncc(C(=O)c2cc3cc(Cl)c(NS(C)(=O)=O)cc3[nH]2)c1N` [Example 4-2-084, N-[2-[5-amino-1-(2-fluoro-6-methyl-4-phenoxyphenyl)pyrazole-4-carbonyl]-5-chloro-1H-indol-6-yl]methanesulfonamide] are 8.20, 6.80 and 7.14.
